From ChEMBL document CHEMBL1201862, “PubChem BioAssay data set” (2004)
Where a name gives a salt, the structure may show the parent alone. Activity calls are given as the source filed them.

Experiments:
HeLa = assay: HeLa cell cytotoxicity, dose response, cytotoxicity control, 24 h, cherry-picked samples (AID 504726); assay type: functional, cell-based; settings: Homo sapiens;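 further: potency for cytotoxicity as loss of luminescence signal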
Streptococcus = assay: Group A Streptococcus viability loss, dose response, counter-screen for streptokinase expression inhibitor project, luminescence, BacTiterGlo (AID 1915); assay type: functional, organism-based;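 further: potency for reduction of bacterial viability or growth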
[1] = cytotoxicity in HEK-293T NF-kB-Luc cells, dose response, cytotoxicity control for B/T-cell NF-kB inhibitor project, cell-based, uHTS hits (AID 489019); assay type: functional;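 further: IC50 reflects cytotoxicity as loss of cell viability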
ORF 73 = molecular target: T1, ORF 73 (Human herpesvirus 8, UniProt O40947); assay: inhibitors of C-LANA binding to LBS DNA, dose response, biochemical, fluorescence polarization, cherry-picked samples (AID 504725); set-up: species or system Human gammaherpesvirus 8;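 further: fluorescence polarization of a labeled DNA duplex reporting LANA DNA binding; potency is for inhibitors that block LANA binding to the DNA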
T1 sequence (O40947 whole entry): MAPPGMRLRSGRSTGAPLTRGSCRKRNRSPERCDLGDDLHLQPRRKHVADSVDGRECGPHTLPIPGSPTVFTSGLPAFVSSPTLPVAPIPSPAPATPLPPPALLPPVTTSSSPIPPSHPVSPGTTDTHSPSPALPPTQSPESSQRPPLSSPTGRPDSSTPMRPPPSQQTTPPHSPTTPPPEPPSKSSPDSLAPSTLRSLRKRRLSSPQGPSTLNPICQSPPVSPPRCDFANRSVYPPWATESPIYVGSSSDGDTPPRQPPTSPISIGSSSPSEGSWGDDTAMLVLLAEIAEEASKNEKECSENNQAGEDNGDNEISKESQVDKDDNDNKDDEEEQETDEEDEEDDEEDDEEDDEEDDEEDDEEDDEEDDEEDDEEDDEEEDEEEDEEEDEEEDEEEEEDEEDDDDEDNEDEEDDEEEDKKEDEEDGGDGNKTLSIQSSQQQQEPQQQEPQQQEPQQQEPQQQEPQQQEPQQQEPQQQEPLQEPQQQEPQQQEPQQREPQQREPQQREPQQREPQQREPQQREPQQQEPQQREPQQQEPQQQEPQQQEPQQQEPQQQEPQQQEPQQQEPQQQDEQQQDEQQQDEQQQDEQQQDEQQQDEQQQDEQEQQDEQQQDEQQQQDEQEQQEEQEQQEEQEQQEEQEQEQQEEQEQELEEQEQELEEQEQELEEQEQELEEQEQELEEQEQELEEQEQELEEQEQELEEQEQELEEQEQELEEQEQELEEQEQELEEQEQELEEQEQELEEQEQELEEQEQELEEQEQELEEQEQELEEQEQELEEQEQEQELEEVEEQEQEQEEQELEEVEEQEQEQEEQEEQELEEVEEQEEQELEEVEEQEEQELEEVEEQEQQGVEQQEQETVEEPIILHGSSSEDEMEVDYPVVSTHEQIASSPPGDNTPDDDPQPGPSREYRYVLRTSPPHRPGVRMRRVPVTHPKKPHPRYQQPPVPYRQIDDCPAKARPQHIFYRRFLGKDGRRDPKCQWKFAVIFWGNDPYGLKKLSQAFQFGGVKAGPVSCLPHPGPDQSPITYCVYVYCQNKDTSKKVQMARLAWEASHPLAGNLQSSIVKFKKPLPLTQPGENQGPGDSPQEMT

Protein S100-A4 = Protein S100-A4 (Homo sapiens, UniProt P26447); assay: S100A4-myosin IIA binding inhibitor potency, dose response, biochemical, fluorescence polarization, cherry-picked hits (AID 687001); assay type: functional
Protein S100-A4, sequence (P26447 whole entry): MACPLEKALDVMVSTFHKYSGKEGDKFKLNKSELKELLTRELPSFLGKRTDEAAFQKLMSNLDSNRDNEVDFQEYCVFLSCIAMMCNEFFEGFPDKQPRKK

[2] = test system: Streptococcus sp. 'group A'; assay: growth inhibition of control SK(-) GAS strain, dose response, counter-screen for streptokinase expression inhibitor project, luminescence, kanamycin, BacTiterGlo, confirmation (AID 1900); assay type: functional, organism-based
[3] = molecular target: UDP-galactopyranose mutase (Mycobacterium tuberculosis, UniProt P9WIQ1); assay: Inhibitors of Mycobacterium tuberculosis UDP-galactopyranose mutase (UGM) enzyme Measured in Biochemical System Using Plate Reader - 2105-02_Inhibitor_Dose_CherryPick_Activity. [Related pubchem assays (depositor defined):AID504439]
UDP-galactopyranose mutase, sequence (P9WIQ1 whole entry): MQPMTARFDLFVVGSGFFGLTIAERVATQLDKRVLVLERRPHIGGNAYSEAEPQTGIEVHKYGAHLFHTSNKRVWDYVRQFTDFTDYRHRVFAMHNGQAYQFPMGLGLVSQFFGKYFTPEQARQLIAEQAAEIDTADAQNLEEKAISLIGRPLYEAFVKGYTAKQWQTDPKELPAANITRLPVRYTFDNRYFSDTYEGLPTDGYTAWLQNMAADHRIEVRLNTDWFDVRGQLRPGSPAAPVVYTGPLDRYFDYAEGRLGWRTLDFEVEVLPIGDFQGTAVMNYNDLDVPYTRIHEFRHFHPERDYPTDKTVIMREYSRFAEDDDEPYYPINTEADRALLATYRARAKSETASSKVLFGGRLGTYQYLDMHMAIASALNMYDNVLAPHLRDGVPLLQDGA

14-3-3 protein gamma = 14-3-3 protein gamma (Homo sapiens, UniProt P61981); assay: modulators of 14-3-3 gamma client binding – dose response (AID 711); assay type: functional
14-3-3 protein gamma, sequence (P61981 whole entry): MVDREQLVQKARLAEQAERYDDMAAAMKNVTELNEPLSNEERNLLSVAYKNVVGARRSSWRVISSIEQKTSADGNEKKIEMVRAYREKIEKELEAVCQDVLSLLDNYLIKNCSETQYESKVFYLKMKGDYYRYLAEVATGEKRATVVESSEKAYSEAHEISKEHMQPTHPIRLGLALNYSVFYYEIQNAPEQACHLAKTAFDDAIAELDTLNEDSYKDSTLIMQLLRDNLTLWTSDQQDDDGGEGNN

Keap1/Nrf2 = Keap1/Nrf2 (Homo sapiens, UniProt Q14145); assay: Keap1-Nrf2 protein-protein interaction inhibitors, dose response, biochemical, fluorescence polarization, cherry-picked samples (AID 588683)
Keap1/Nrf2, sequence (Q16236 whole entry): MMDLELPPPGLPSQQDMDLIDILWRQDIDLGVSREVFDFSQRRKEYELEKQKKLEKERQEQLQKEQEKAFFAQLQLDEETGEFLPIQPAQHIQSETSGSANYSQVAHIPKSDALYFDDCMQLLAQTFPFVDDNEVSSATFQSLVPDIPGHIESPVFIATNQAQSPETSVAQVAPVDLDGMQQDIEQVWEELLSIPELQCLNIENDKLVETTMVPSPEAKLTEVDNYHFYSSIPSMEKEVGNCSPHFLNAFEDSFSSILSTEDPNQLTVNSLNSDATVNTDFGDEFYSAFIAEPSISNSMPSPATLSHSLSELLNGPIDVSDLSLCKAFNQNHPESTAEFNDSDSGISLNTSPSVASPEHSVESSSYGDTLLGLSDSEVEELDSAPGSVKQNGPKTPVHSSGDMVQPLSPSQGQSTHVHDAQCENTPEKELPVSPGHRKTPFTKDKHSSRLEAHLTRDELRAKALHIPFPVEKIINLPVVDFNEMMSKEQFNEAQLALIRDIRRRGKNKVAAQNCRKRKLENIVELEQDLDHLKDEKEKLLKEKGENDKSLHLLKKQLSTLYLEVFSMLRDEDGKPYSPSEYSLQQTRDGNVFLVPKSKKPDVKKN
Keap1/Nrf2, sequence (Q14145 whole entry): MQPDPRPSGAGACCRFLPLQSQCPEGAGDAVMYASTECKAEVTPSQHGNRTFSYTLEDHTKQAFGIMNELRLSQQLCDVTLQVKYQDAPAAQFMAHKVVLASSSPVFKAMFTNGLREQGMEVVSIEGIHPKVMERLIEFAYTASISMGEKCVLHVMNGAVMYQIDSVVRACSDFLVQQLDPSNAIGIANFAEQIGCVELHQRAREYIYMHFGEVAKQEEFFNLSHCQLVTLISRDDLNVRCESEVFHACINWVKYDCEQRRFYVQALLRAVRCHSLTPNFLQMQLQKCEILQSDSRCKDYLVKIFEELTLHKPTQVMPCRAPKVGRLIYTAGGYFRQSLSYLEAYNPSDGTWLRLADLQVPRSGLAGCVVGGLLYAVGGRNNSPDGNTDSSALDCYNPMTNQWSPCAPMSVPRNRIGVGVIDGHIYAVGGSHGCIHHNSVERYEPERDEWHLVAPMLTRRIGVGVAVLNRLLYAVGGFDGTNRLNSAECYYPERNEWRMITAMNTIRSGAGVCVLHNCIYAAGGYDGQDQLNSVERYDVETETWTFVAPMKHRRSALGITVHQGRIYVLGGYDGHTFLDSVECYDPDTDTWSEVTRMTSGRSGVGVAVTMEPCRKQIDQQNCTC

BJ = assay: cytotoxicity toward Ras-transformed BJeLR fibroblasts, dose response, cell-based, alamar blue fluorescence, cherrypicked samples (AID 2631); assay type: functional; settings: Homo sapiens;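 further: confirmatory dose-response assay in RAS-dependent BJ fibroblasts engineered with TERT, LT and ST, with cytotoxicity read by fluorescence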
[4] = molecular target: T2, Apoptotic protease-activating factor 1 (Homo sapiens, UniProt O14727); assay type: functional
T2 sequence (O14727 whole entry): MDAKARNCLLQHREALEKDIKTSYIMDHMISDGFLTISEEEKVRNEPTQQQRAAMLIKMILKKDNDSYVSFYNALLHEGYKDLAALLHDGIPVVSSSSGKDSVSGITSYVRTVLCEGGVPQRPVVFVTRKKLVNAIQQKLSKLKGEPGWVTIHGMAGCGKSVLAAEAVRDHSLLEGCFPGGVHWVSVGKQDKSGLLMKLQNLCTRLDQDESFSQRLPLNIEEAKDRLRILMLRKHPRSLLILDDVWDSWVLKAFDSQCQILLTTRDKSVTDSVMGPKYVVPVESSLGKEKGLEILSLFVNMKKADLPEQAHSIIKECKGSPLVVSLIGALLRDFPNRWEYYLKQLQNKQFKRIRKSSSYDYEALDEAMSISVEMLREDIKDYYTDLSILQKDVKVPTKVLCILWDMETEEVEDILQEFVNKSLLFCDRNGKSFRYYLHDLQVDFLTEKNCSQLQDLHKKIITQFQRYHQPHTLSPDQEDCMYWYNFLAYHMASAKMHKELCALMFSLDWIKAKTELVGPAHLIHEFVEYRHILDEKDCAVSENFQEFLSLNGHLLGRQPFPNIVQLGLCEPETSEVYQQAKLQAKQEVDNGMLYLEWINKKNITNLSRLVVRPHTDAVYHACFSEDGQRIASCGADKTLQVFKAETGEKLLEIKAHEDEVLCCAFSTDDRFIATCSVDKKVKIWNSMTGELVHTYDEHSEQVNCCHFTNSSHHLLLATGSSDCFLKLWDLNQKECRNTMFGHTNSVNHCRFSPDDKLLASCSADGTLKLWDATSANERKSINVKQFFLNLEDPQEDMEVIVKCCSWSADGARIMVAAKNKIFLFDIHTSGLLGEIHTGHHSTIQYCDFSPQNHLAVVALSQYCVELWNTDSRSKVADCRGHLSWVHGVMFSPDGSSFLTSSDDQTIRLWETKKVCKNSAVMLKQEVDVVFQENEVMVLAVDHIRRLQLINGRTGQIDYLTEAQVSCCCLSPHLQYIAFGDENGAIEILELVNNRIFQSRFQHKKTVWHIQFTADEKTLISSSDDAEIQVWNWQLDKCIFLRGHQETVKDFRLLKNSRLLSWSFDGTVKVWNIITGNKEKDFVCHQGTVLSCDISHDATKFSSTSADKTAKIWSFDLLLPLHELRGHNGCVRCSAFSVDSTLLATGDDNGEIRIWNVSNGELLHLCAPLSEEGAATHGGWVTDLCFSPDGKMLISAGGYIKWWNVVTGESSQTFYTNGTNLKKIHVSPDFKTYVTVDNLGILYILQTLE

[5] = molecular target: Aryl hydrocarbon receptor (Homo sapiens, UniProt P35869); assay: Luminescence-based cell-based high throughput dose response assay for activators of the Aryl Hydrocarbon Receptor (AHR). [Related pubchem assays: 2796 (Primary screen (AHR activators in singlicate)), 2845 (Confirmation screen (AHR activators in triplicate)), 434939 (Counterscreen (PXR activators in triplicate)), 2804 (Summary (AHR activators))]; assay type: ADME
Aryl hydrocarbon receptor, sequence (P35869 whole entry): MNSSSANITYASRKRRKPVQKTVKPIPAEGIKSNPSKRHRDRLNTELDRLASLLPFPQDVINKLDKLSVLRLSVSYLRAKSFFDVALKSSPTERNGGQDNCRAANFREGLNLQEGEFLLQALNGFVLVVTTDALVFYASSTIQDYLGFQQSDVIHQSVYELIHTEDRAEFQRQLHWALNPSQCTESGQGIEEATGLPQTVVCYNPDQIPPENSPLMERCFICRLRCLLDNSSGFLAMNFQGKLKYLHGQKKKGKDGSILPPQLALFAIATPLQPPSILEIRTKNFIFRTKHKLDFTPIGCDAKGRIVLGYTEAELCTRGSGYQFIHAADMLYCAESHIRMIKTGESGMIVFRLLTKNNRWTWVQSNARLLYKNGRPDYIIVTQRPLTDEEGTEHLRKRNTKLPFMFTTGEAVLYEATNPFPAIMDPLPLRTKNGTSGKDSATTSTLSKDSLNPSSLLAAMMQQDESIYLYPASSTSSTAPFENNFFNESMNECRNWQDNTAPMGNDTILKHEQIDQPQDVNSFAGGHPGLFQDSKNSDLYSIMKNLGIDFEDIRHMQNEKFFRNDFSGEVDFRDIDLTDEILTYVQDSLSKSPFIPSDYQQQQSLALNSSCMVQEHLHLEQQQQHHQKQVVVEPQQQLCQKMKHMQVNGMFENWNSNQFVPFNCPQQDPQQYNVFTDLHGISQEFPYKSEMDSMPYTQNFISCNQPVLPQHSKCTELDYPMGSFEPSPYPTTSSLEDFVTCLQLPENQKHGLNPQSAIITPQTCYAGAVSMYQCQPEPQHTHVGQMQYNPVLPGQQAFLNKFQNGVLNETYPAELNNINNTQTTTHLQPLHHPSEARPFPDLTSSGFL

[6] = molecular target: T3, Heat shock factor protein 1 (Mus musculus, UniProt P38532); assay: HSF1 potentiators in luciferase reporter cells, confirmation, cell-based, NIH3T3, luminescence, dose retest (AID 435004); assay type: functional;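 further: stress induced by proteasome inhibitor MG132 added 30 min after compound; luciferase reporter driven by HSF1 response element in NIH3T3 cells; actives raise luminescence as potentiators of the MG132 stress response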
T3 sequence (P38532 whole entry): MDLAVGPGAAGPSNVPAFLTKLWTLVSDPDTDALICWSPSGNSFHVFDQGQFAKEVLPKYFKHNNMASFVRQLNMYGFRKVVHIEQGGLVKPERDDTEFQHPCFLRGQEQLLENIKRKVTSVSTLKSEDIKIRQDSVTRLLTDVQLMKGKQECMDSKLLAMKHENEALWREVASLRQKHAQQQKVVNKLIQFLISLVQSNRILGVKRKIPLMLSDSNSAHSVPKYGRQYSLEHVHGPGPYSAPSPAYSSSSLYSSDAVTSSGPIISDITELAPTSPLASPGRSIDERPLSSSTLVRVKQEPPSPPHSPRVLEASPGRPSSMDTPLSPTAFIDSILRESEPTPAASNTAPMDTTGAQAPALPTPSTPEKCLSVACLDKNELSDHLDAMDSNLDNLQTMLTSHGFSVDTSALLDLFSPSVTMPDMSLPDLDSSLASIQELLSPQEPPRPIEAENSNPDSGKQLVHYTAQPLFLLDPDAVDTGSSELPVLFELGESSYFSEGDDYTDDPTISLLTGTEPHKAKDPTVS

[7] = molecular target: T4, Dual specificity protein phosphatase 6 (Rattus norvegicus, UniProt Q64346); assay: MKP-3 phosphatase inhibitors, primary screen, biochemical, rat enzyme, in vitro (AID 425)
T4 sequence (Q64346 whole entry): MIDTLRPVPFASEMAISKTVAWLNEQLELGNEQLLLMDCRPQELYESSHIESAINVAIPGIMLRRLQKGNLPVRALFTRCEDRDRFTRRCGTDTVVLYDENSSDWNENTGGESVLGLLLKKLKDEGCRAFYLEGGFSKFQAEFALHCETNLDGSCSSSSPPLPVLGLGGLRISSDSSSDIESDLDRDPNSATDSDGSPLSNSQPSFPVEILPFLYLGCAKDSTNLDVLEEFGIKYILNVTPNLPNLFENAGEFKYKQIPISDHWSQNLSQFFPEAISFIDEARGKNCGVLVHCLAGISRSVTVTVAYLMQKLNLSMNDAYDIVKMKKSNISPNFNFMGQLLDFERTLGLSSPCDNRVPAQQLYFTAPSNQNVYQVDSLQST

[8] = control 3'UTR Renilla luciferase suppression, dose response, counter-screen for Shn3 inhibitor project, cell-based, Clone20-Shn3RL, cherry-picked (AID 624133); assay type: functional
[9] = molecular target: Sphingosine 1-phosphate receptor 2 (Homo sapiens, UniProt O95136); assay: Dose Response Cell Based Assay for Antagonists of the S1P2 Receptor. [Related pubchem assays: 856, 736 ]; assay type: functional
Sphingosine 1-phosphate receptor 2, sequence (O95136 whole entry): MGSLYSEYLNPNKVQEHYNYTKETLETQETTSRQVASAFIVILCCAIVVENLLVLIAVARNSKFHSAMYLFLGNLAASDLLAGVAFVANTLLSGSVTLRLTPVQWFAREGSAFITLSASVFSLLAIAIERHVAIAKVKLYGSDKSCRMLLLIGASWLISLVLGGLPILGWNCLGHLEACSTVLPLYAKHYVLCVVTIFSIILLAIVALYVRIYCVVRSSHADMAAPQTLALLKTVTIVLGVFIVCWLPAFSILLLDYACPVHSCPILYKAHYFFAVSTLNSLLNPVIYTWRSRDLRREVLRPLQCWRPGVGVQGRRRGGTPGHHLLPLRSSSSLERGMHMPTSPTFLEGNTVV

Cytochrome P450 2C9 = Cytochrome P450 2C9 (Homo sapiens, UniProt P11712)
Cytochrome P450 2C9, sequence (P11712 whole entry): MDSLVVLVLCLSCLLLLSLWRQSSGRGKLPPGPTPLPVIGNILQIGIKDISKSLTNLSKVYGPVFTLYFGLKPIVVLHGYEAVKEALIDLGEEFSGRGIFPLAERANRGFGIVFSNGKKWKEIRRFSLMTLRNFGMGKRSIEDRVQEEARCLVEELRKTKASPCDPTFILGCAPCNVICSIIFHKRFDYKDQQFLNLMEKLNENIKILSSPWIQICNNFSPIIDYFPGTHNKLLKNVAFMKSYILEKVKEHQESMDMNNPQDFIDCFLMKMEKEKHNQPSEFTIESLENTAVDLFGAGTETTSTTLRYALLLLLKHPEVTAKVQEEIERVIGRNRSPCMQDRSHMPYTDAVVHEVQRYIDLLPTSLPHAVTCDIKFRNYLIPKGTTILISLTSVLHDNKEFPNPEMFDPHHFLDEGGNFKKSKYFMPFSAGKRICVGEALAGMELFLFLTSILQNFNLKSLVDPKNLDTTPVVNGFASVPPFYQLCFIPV

Galanin receptor type 2 = Galanin receptor type 2 (Homo sapiens, UniProt O43603); assay: Dose Response cell-based high-throughput screening assay to identify antagonists of galanin receptor 2 (GALR2). [Related pubchem assays: 828, 866 ]; assay type: functional
Galanin receptor type 2, sequence (O43603 whole entry): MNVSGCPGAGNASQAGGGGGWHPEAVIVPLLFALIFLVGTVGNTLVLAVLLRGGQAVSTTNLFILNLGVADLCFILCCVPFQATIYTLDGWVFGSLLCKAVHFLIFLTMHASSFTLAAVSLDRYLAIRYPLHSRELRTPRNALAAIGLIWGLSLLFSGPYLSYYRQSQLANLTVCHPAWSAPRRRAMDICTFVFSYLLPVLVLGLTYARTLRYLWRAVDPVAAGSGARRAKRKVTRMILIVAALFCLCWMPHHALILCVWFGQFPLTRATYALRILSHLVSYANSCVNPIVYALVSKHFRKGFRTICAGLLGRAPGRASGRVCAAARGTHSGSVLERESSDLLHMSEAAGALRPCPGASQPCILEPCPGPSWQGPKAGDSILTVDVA

[10] = HepG2 cell cytotoxicity, dose response, cytotoxicity control for Shn3 inhibitor project, CellTiter-Glo, cherry-picked (AID 624134); assay type: functional, cell-based
[11] = molecular target: T5, Short transient receptor potential channel 4 (Mus musculus, UniProt Q9QUQ5); assay: mouse TRPC4 channel activators, dose response, cell-based, HEK293 TRPC4/mu-opioid, Fluo-4 calcium (AID 434937); assay type: functional
T5 sequence (Q9QUQ5 whole entry): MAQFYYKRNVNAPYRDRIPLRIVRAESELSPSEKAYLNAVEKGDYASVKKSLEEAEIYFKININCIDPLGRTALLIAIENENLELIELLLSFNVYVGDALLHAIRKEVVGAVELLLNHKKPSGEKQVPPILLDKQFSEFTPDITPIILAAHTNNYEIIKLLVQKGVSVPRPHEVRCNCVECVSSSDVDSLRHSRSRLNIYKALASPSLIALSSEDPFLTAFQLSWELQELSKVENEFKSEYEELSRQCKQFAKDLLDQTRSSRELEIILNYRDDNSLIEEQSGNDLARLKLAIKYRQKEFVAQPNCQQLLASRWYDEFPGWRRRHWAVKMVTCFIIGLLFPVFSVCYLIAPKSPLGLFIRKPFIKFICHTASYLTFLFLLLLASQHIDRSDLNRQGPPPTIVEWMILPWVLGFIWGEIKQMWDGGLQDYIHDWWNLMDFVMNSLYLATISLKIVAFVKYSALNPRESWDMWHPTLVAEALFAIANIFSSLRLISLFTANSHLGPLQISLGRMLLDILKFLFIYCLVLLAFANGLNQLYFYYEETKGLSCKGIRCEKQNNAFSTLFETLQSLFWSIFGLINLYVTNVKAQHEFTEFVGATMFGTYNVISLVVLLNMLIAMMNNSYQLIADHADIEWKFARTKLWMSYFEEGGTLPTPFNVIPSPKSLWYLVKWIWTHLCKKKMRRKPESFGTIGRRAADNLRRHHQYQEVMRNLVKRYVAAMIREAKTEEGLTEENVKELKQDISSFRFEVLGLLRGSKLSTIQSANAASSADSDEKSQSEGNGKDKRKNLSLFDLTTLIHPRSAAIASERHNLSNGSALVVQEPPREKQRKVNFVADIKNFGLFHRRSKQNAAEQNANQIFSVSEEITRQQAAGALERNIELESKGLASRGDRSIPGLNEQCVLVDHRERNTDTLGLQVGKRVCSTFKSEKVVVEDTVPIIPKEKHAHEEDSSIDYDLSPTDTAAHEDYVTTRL

[12] = Shn3 3'UTR reporter inhibitors, dose response, cell-based, Clone20 osteoblasts, firefly luciferase, cherry-picked (AID 624132); assay type: functional;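 further: firefly luciferase luminescence from reporter carrying the Shn3 3'UTR in osteoblasts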
INS1 = assay: beta cell apoptosis inhibitors, cytokine rescue, dose response, luminescence, retest (AID 449756); assay type: functional, cell-based; settings: Rattus norvegicus;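 further: cell death triggered by IL-1 beta plus TNF-alpha plus IFN-gamma mixture; protective hits raise ATP signal compared with cytokine alone wells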

COc1cccc2c1C(=O)c1c(O)c3c(c(O)c1C2=O)C[C@@](O)(C(=O)CO)C[C@@H]3O[C@H]1C[C@H](N)[C@H](O)[C@H](C)O1 [DOXORUBICIN HYDROCHLORIDE]
AC50 (HeLa): 4.38 µM (active) | EC50 (Streptococcus): 3.69 µM (active) | IC50 [1]: > 80 µM (inactive) | AC50 (ORF 73): 1.46 µM (active) | AC50 (Protein S100-A4): 0.323 µM (active) | EC50 [2]: 0.518 µM (active) | AC50 [3]: 32.2 µM (active) | IC50 (14-3-3 protein gamma): < 0.781 µM (active) | AC50 (Keap1/Nrf2): 43.4 µM (active) | EC50 (BJ): < 0.104 µM (active) | IC50 [4]: 21.2 µM (active)

Cc1cccc2cc3c(N)c(C(=O)N4CCOCC4)sc3nc12
EC50 [5]: > 3.39 µM (active) | EC50 [6]: > 260 µM (inactive)

COC(=O)CCCc1nc2ccccc2s1
IC50 [7]: > 100 µM (not active)

Cc1ccc2[nH]c3c(N4CCc5ccccc5C4)ncnc3c2c1
AC50 [8]: < 0.26 µM (active) | IC50 [9]: 3.63 µM (active) | AC50 (Cytochrome P450 2C9): 2.24 µM (inconclusive) | IC50 (Galanin receptor type 2): > 42 µM (not active) | AC50 [10]: 33.8 µM (active) | EC50 [11]: 5.96 µM (active) | AC50 [12]: 1.18 µM (active) | AC50 (INS1): 1.38 µM (active) | EC50 [6]: 103 µM (active)
